PMC2453235, “Identification and Rational Redesign of Peptide Ligands to CRIP1, A Novel Biomarker for Cancers” (PLoS Computational Biology, 2008)
Where a SMILES comes first, the peptide text is derived from it. Bridges are numbered along the chain shown (N, C = ends). Where no end group is shown, it is not given here. The star is where a group is joined. 5FAM = O=C1OC2(c3ccc(O)cc3Oc3cc(O)ccc32)c2ccc(C(=O)*)cc21

Legend:
CRIP1 [1] = target: T1, CRIP1 (Homo sapiens, UniProt P50238); assay: ELISA of individual phage clones binding to immobilized CRIP1; conditions: purified chimeric CRIP1 not reacted with enterokinase
T1 construct: enterokinase cleavage site and vector linker residues (N); made in house; host or cells: E. coli (pHAT10-CRIP1, IPTG induction)
T1 sequence (P50238 1-77): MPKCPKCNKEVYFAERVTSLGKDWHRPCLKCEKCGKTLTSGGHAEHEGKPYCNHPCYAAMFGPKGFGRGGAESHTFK
Text: To select clones for further analysis, we used ELISA to determine the relative binding affinities of selected individual phage clones to purified CRIP1 (see Methods and Figure S3). For these studies the purified chimeric CRIP1 was not reacted with enterokinase.
Supplementary file pcbi.1000138.s003.tif: Figure S3 Relative estimates of peptide affinity for CRIP1. Phage binding against immobilized CRIP-1. (0.38 MB TIF) Click here for additional data file.

CRIP1 [2] = target: T1, CRIP1; assay: Phage display panning (Ph.D.-C7C library), frequency of enriched sequences; type: binding; conditions: 4 rounds of panning against enterokinase-truncated CRIP1, 29 phage inserts sequenced
Description: In order to generate CRIP1 protein that was as similar as possible to endogenous CRIP1, enterokinase cleavage was performed on purified CRIP1. Uncleaved contaminating HIS-tagged CRIP1 as well as HIS-tagged peptides were removed by re-running the digest over the CellThru resin and retaining the flow thru. […] After four rounds of positive selection against enterokinase-truncated CRIP1, 29 phage DNA inserts were sequenced using a 96 gIII primer (5′-^HOCCC TCA TAG TTA GCG TAA CG-3′). Sequencing verified that 18 of the 29 phagotopes were from the cysteine-constrained phage library, Table 1. Many of the peptide sequences contained similar motifs and six sequences occurred in more than one phagotope. The peptides A1 and C5 were identified four times, C1 three times, and A9, B1, and B5 twice. However, even accounting for conserved amino acid substitutions, no clear motif could be identified.
CRIP1 was digested with enterokinase (Roche Diagnostics, Inc.) to remove the His tag and then was used as bait for 4 rounds of panning with the Ph.D.-C7C Phage Display Peptide Library (New England Biolabs). The nucleotide sequence of the gene III insert was determined by sequencing the phage, and the amino acid sequence of the insert was deduced from the nucleotide sequence, shown in Table 1.

[3] = target: T2, Cysteine-rich intestinal protein 1 (CRIP1), purified protein coated on plates for the peptide binding assays (human, UniProt P50238 1-77); assay: saturation binding of FITC-labelled peptide to protein-coated plates (fluorescence read-out); CRIP1 coated on 96-well plates (100 µg/ml in PBS, overnight 4°C), blocked with 0.5% BSA in TBS; FITC peptide 50 nM to 100 µM, 1 h at 37°C; non-specific binding with 1 mM unlabeled peptide; apparent Kd by non-linear regression; conditions: both partners purified
T2 construct: Cysteine-rich intestinal protein 1 (CRIP1), human; coding region of the cDNA, 77 amino acids; also called CRIP1 protein; source: bacteria (pHAT10-CRIP1, IPTG induced), purified (TALON CellThru resin)
T2 sequence (looked up): T1 sequence (P50238 1-77)

[4] = target: T2, Cysteine-rich intestinal protein 1 …; assay: saturation binding of FITC-labelled peptide to protein-coated plates (fluorescence read-out); data not shown; 'similar assays' to the saturation binding of FITC-A1M on coated CRIP1; apparent Kd; conditions: both partners purified
[5] = target: T2, Cysteine-rich intestinal protein 1 …; assay: competitive binding on protein-coated plates (fluorescence read-out); CRIP1 coated on 96-well plates (100 µg/ml in PBS, overnight 4°C); 10 µM FITC-A1M held constant, unlabeled A1 or A1M 0 to 300 µM, 1 h at 37°C; one binding site model; conditions: both partners purified

With CC(C)C[C@@H]1NC(=O)[C@@H](N)CSSC[C@@H](C(=O)NCC(=O)NCC(=O)NCC(=O)N[C@@H](CO)C(=O)N[C@@H](CCCCN)C(N)=O)NC(=O)[C@H](CO)NC(=O)[C@H](CCCNC(=N)N)NC(=O)[C@H](Cc2c[nH]cn2)NC(=O)[C@H](CC(N)=O)NC(=O)[C@H](CC(=O)O)NC(=O)[C@H](CCCCN)NC1=O [A1] (H-CLKDNHRSCGGGSK-NH2; disulfide 1-9; N-terminus assumed) the “relative binding affinity of phage clone” value (CRIP1 [1]) was “higher relative affinity”.

In the case of CC[C@H](C)[C@@H]1NC(=O)[C@@H]2CCCN2C(=O)[C@H](CC(=O)O)NC(=O)[C@H](Cc2ccc(O)cc2)NC(=O)[C@@H](N)CSSC[C@@H](C(=O)NCC(=O)NCC(=O)NCC(=O)N[C@@H](CO)C(=O)N[C@@H](CCCCNC(=O)c2ccc3c(c2)C(=O)OC32c3ccc(O)cc3Oc3cc(O)ccc32)C(N)=O)NC(=O)[C@H]([C@@H](C)O)NC(=O)[C@H](CCCNC(=N)N)NC(=O)[C@H](Cc2c[nH]c3ccccc23)NC1=O [B5] (H-CYDPIWRTCGGGSK(5FAM)-NH2; disulfide 1-9; N-terminus assumed), the “relative binding affinity of phage clone” value (CRIP1 [1]) is reported as “higher relative affinity”.

For “APYNTLA (disulfide (positions not given here)) [A6, C7C phage display peptide APYNTLA]”, the “Frequency (number of phage clones with the sequence)” value (“Frequency” below) (CRIP1 [2]) was 1.

In the case of “DHRQGSS (disulfide (positions not given here)) [A5, C7C phage display peptide DHRQGSS]”, the “Frequency” value (CRIP1 [2]) is reported as 1.

“FSTNMKT (disulfide (positions not given here)) [B3, C7C phage display peptide FSTNMKT]” was tested, and the “Frequency” value (CRIP1 [2]) was 1.

In the case of “HANFLHM (disulfide) [C2, C7C phage display peptide HANFLHM]”, the “Frequency” value (CRIP1 [2]) is reported as 1.

With “LPAYSTY (disulfide (positions not given here)) [B9, C7C phage display peptide LPAYSTY]” the “Frequency” value (CRIP1 [2]) was 1.

In the case of “PLFKGMS (disulfide (positions not given here)) [B7, C7C phage display peptide PLFKGMS]”, the “Frequency” value (CRIP1 [2]) is reported as 1.

For “RDSSAHQ (disulfide (positions not given here)) [B10, C7C phage display peptide RDSSAHQ]”, the “Frequency” value (CRIP1 [2]) was 1.

In the case of “RTTGAQT (disulfide (positions not given here)) [B4, C7C phage display peptide RTTGAQT]”, the “Frequency” value (CRIP1 [2]) is reported as 1.

In the case of “SLNTRSQ (disulfide (positions not given here)) [C9, C7C phage display peptide SLNTRSQ]”, the “Frequency” value (CRIP1 [2]) is reported as 1.

With “SPHIIAS (disulfide (positions not given here)) [A8, C7C phage display peptide SPHIIAS]” the “Frequency” value (CRIP1 [2]) was 1.

For “SVPINDS (disulfide) [A3, C7C phage display peptide SVPINDS]”, the “Frequency” value (CRIP1 [2]) was 1.

“TPRQSPI (disulfide) [C5, C7C phage display peptide TPRQSPI]” was tested, and the “relative binding affinity of phage clone” value (CRIP1 [1]) was “lower binding affinity”.

“YDPIWRT (disulfide (positions not given here)) [B2, C7C phage display peptide YDPIWRT]” was tested, and the “Frequency” value (CRIP1 [2]) was 1.

B1: FITC-cyclic-A1M peptide (peptide)
peptide: H-CLDGGGKGCGGGSK-NH2
modifications: disulfide 1-9 (inferred); not fully specified (residue 14); printed as NH_2_-C-L-D-G-G-G-K-G-C-G-G-G-S-K-(FITC)-CONH_2_
notes: also called FITC-A1M; modified A1; source: synthetic peptide (Fmoc chemistry, HPLC purified, cyclised by oxidation in DMSO)
For B1, the Kd [3] was 2.6 µM.

B2: FITC-cyclic-A1 peptide (peptide)
peptide: H-CLKDNHRSCGGGSK-NH2
modifications: disulfide 1-9 (inferred); not fully specified (residue 14); printed as NH_2_-C-L-K-D-N-H-R-S-C-G-G-G-S-K-(FITC)-CONH_2_
notes: insert of phage clone A1 (C7C library) followed by the phage spacer Gly-Gly-Gly-Ser and a C-terminal Lys for labelling; also called FITC-A1; parent A1 peptide; source: synthetic peptide (Fmoc chemistry, HPLC purified, cyclised by oxidation in DMSO)
B2 gave a Kd [4] of 34.4 µM.

CLDGGGKGCGGGSK (disulfide 1-9 (inferred), source: synthetic peptide) [unlabeled A1M peptide] showed an IC50 [5] of 0.32 µM and a Ki [5] of 0.067 µM.

B3: unlabeled A1 peptide (peptide)
peptide: CLKDNHRSCGGGSK
modifications: disulfide 1-9 (inferred)
notes: also called original A1 peptide; source: synthetic peptide
In the case of B3, the IC50 [5] is reported as 8.8 µM.

B4: FITC-cyclic-B5 peptide (peptide)
peptide: CYDPIWRTCGGGSK-NH2
modifications: disulfide 1-9 (inferred); not fully specified (residue 14); printed as C-Y-D-P-I-W-R-T-C-G-G-G-S-K-(FITC)-CONH_2_
notes: insert of phage clone B5 (C7C library) followed by the phage spacer Gly-Gly-Gly-Ser and a C-terminal Lys for labelling; also called FITC-B5; source: synthetic peptide (Fmoc chemistry, HPLC purified, cyclised by oxidation in DMSO)
With B4 the Kd [4] was 62.5 µM.
